Laboratory results taken from ChEMBL document CHEMBL5634137, “2,4-Diacetylphloroglucinol (DAPG) derivatives rapidly eradicate methicillin-resistant staphylococcus aureus without resistance development by disrupting membrane” (Eur J Med Chem, 2023).
In brackets after ≈: the same amount, converted by molar mass. Activity calls are given as the source filed them. The calls are words filed in the database; no cut-off is given here.

Assays:
Pseudomonas aeruginosa = assay: Antibacterial activity against Pseudomonas aeruginosa […] assessed as inhibition of bacterial growth incubated for 24 hrs by broth dilution method; format: functional
Klebsiella pneumoniae = assay: Antibacterial activity against Klebsiella pneumoniae […] assessed as inhibition of bacterial growth incubated for 24 hrs by broth dilution method; format: functional
Staphylococcus aureus [1] = assay: Antibacterial activity against Methicillin-resistant Staphylococcus aureus USA300 infected in mouse skin infection model assessed as reduction in number of bacteria at 10 mg/kg, sc administered every 12 hrs for 3 days; format: functional
Escherichia coli = assay: Antibacterial activity against Escherichia coli ATCC 11775 assessed as inhibition of bacterial growth incubated for 24 hrs by broth dilution method; format: functional
Staphylococcus aureus [2] = assay: Induction of resistance development in methicillin resistant Staphylococcus aureus USA300 assessed as fold increase in MIC measured upto 65 days; format: functional; details: time <= 65.0 day
Cell membrane [3] = assay: Induction of cell membrane damage in Staphylococcus aureus USA300 assessed as nucleic acid leakage at 1 to 2 times MIC by confocal laser scanning microscopic analysis; format: cell membranes
Cell membrane [4] = assay: Induction of cell membrane damage in Staphylococcus aureus USA300 assessed as nucleic acid leakage at 4 to 8 times MIC measured for 3 hrs by confocal laser scanning microscopic analysis; format: cell membranes
Staphylococcus aureus [5] = assay: Inhibition of staphyloxanthin biosynthesis in Methicillin-resistant Staphylococcus aureus ATCC 3392 assessed as reduction in 4,4-diaponeurosporenic acid formation at 0.125 to 0.625 times MIC by nanodrop spectrophotometer analysis; format: functional, organism-based
Staphylococcus aureus [6] = assay: Selectivity index, ratio of MBC for bactericidal against methicillin-resistant Staphylococcus aureus ATCC 3392 to MIC for antibacterial activity against methicillin-resistant Staphylococcus aureus ATCC 3392; format: functional
Staphylococcus aureus [7] = assay: Antibiofilm activity against Methicillin-resistant Staphylococcus aureus USA300 assessed as biofilm eradication at 16 times MIC by crystal violet staining based assay; format: functional
Cell membrane [8] = assay: Induction of inner membrane permeabilization in Staphylococcus aureus USA300 assessed as increase in fluorescence intensity incubated for 90 mins by SYTOX staining based analysis; format: cell membranes
Staphylococcus aureus [9] = assay: Bactericidal against methicillin-resistant Staphylococcus aureus ATCC 4330 assessed as inhibition of bacterial growth incubated for 24 hrs by broth dilution method; format: functional
Staphylococcus aureus [10] = assay: Synergistic antibacterial activity against Methicillin-resistant Staphylococcus aureus USA300 assessed as oxacillin MIC incubated for 24 hrs by checkboard method (reference value: 2 microg/ml); format: functional
Staphylococcus aureus [11] = assay: Antibacterial activity against methicillin-resistant Staphylococcus aureus ATCC 4330 assessed as inhibition of bacterial growth incubated for 24 hrs by broth dilution method; format: functional
Staphylococcus aureus [12] = assay: Antibiofilm activity against Methicillin-resistant Staphylococcus aureus USA300 assessed as inhibition of biofilm formation at 0.25 times MIC by crystal violet staining based assay; format: functional; design: scale not given: the % may be the effect or the level left
Staphylococcus aureus [13] = assay: Induction of morphological changes in Staphylococcus aureus USA300 assessed as appearance of broken cell surface at 2 to 4 times MIC by SEM analysis; format: functional, organism-based
Staphylococcus aureus [14] = assay: Induction of morphological changes in Staphylococcus aureus USA300 assessed as appearance of wrinkled cell surface at 2 to 4 times MIC by SEM analysis; format: functional, organism-based
Staphylococcus aureus [15] = assay: Antibacterial activity against Methicillin-resistant Staphylococcus aureus USA300 assessed as decrease in number of colonies at 1 to 4 times MIC incubated upto 8 hrs by time-kill kinetics assay; format: functional, organism-based
Staphylococcus aureus [16] = assay: Induction of resistance development in methicillin resistant Staphylococcus aureus USA300 at 25 to 150 microg/ml measured upto 65 days; format: functional; details: dose 25-150 µg/ml, time <= 65.0 day
Staphylococcus aureus [17] = assay: Synergistic antibacterial activity against Methicillin-resistant Staphylococcus aureus USA300 assessed as amoxicillin MIC incubated for 24 hrs by checkboard method (reference value: 8 microg/ml); format: functional
Staphylococcus aureus [18] = assay: Antibacterial activity against Methicillin-resistant Staphylococcus aureus USA300 assessed as decrease in number of colonies incubated for 0.5 hrs by time-kill kinetics assay; format: functional, organism-based
Staphylococcus aureus [19] = assay: Additive antibacterial activity against Methicillin-resistant Staphylococcus aureus USA300 assessed as fractional inhibitory concentration index in presence of doxycycline by checkboard method; format: functional
Cell membrane [20] = assay: Induction of cell membrane damage in Staphylococcus aureus USA300 assessed as intracellular ATP leakage at 1 to 8 times MIC by confocal laser scanning microscopic analysis; format: cell membranes
Staphylococcus aureus [21] = assay: Antibacterial activity against methicillin-resistant Staphylococcus aureus ATCC 3392 assessed as inhibition of bacterial growth incubated for 24 hrs by broth dilution method; format: functional
Staphylococcus aureus [22] = assay: Antibacterial activity against Methicillin-resistant Staphylococcus aureus USA300 assessed as decrease in number of colonies at 0.5 times MIC incubated for 2 to 5 hrs by time-kill kinetics assay; format: functional, organism-based; details: time 2-5 hrs
Staphylococcus aureus [23] = assay: Additive antibacterial activity against Methicillin-resistant Staphylococcus aureus USA300 assessed as doxycycline MIC incubated for 24 hrs by checkboard method(reference value: 0.125 microg/ml); format: functional
Cell membrane [24] = assay: Induction of cell membrane damage in Staphylococcus aureus USA300 assessed as increase in red fluorescence intensity at 2 times MIC by confocal laser scanning microscopic analysis; format: cell membranes
[25] = Cytotoxicity against human L02 cells assessed as survival rate incubated for 24 hrs by MTT assay; format: toxicity, cell-based; design: concentration or dose not given beside the values; details: read-out: Survival
Cell membrane [26] = assay: Induction of inner membrane permeabilization in Staphylococcus aureus USA300 assessed as increase in fluorescence intensity at 1 times MIC incubated for 90 mins by SYTOX staining based analysis
Staphylococcus aureus [27] = assay: Synergistic antibacterial activity against Methicillin-resistant Staphylococcus aureus USA300 assessed as fractional inhibitory concentration index in presence of oxacillin by checkboard method; format: functional
Staphylococcus aureus [28] = assay: Synergistic antibacterial activity against Methicillin-resistant Staphylococcus aureus USA300 assessed as fractional inhibitory concentration index in presence of amoxicillin by checkboard method; format: functional
Staphylococcus aureus [29] = assay: Inhibition of staphyloxanthin biosynthesis in Methicillin-resistant Staphylococcus aureus ATCC 3392 assessed as reduction in Staphyloxanthin formation at 0.125 to 0.625 times MIC by nanodrop spectrophotometer analysis; format: functional, organism-based
Staphylococcus aureus [30] = assay: Antibiofilm activity against Methicillin-resistant Staphylococcus aureus USA300 assessed as inhibition of biofilm formation at 0.5 times MIC by crystal violet staining based assay; format: functional; design: scale not given: the % may be the effect or the level left
Staphylococcus aureus [31] = assay: Antibiofilm activity against Methicillin-resistant Staphylococcus aureus USA300 assessed as biofilm eradication at 32 times MIC by crystal violet staining based assay; format: functional
Staphylococcus aureus [32] = assay: Inhibition of staphyloxanthin biosynthesis in Methicillin-resistant Staphylococcus aureus ATCC 3392 assessed as reduction in 4,4-Diaponeurosporene formation at 0.125 to 0.625 times MIC by nanodrop spectrophotometer analysis; format: functional, organism-based
Staphylococcus aureus [33] = assay: Inhibition of staphyloxanthin biosynthesis in Methicillin-resistant Staphylococcus aureus ATCC 3392 assessed as reduction in 4,4-Diapophytoene formation at 0.125 to 0.625 times MIC by nanodrop spectrophotometer analysis; format: functional, organism-based
[34] = Toxicity in mouse assessed as change in body weight at 10 mg/kg, sc administered every 12 hrs for 4 days; format: organism-based; details: in vivo, 96 h, time 4 day
[35] = Cytotoxicity against mouse RAW264.7 cells assessed as survival rate incubated for 24 hrs by MTT assay; format: toxicity, cell-based; design: concentration or dose not given beside the values; details: read-out: Survival
Cell membrane [36] = assay: Induction of inner membrane permeabilization in Staphylococcus aureus USA300 assessed as increase in fluorescence intensity at 2 times MIC incubated for 40 mins by SYTOX staining based analysis; format: cell membranes
Staphylococcus aureus [37] = assay: Synergistic antibacterial activity against Methicillin-resistant Staphylococcus aureus USA300 infected in mouse skin infection model assessed as reduction in number of bacteria at 10 mg/kg, sc in presence of oxacillin administered every 12 hrs for 3 days; format: functional; details: time 3 day
Staphylococcus aureus [38] = assay: Bactericidal activity against methicillin-resistant Staphylococcus aureus ATCC 3392 assessed as inhibition of bacterial growth incubated for 24 hrs by broth dilution method; format: functional
Cell membrane [39] = assay: Induction of cell membrane damage in Staphylococcus aureus USA300 assessed as intracellular ATP leakage at 16 times MIC by confocal laser scanning microscopic analysis; format: cell membranes
Staphylococcus aureus [40] = assay: Antibacterial activity against Methicillin-resistant Staphylococcus aureus USA300 assessed as inhibition of bacterial growth incubated for 24 hrs by broth dilution method; format: functional

**Q.** For CN[C@H](CC(C)C)C(=O)N[C@H]1C(=O)N[C@@H](CC(N)=O)C(=O)N[C@H]2C(=O)N[C@H]3C(=O)N[C@H](C(=O)N[C@H](C(=O)O)c4cc(O)cc(O)c4-c4cc3ccc4O)[C@H](O)c3ccc(c(Cl)c3)Oc3cc2cc(c3O[C@@H]2O[C@H](CO)[C@@H](O)[C@H](O)[C@H]2O[C@H]2C[C@](C)(N)[C@H](O)[C@H](C)O2)Oc2ccc(cc2Cl)[C@H]1O [VANCOMYCIN], which MIC (Pseudomonas aeruginosa) is on record?
**A.** > 64 µg/mL

**Q.** What about the MIC (Klebsiella pneumoniae) of the same molecule?
**A.** > 64 µg/mL

**Q.** What about the Activity (Staphylococcus aureus [1]; time 3.0 day) of the same molecule?
**A.** inactive

**Q.** And the MIC (Escherichia coli)?
**A.** > 64 µg/mL

**Q.** Which fold change (FC) (Staphylococcus aureus [2]) does the source give for CCCCCCC(=O)c1c(O)cc(O)c(C(=O)CCCCCC)c1O here?
**A.** 256

**Q.** What about the Activity (Cell membrane [3]) of the same molecule?
**A.** inactive

**Q.** What about the Activity (Cell membrane [4]) of the same molecule?
**A.** Active

**Q.** What about the MIC (Pseudomonas aeruginosa) of the same molecule?
**A.** > 64 µg/mL

**Q.** And the inhibition (Staphylococcus aureus [5])?
**A.** Active

**Q.** What about the “Selectivity Index” value (Staphylococcus aureus [6]) of the same molecule?
**A.** 1

**Q.** What about the Activity (Staphylococcus aureus [7]) of the same molecule?
**A.** 37%

**Q.** What about the Activity (Cell membrane [8]) of the same molecule?
**A.** Dose-Dependent Effect

**Q.** What about the MBC (Staphylococcus aureus [9]) of the same molecule?
**A.** 1 µg/mL (≈ 2.85 µM)

**Q.** And the MIC (Staphylococcus aureus [10])?
**A.** 0.125 µg/mL

**Q.** What about the MIC (Staphylococcus aureus [11]) of the same molecule?
**A.** 0.5 µg/mL (≈ 1.43 µM)

**Q.** What about the Activity (Staphylococcus aureus [12]) of the same molecule?
**A.** 58%

**Q.** What about the Activity (Staphylococcus aureus [13]) of the same molecule?
**A.** Active

**Q.** And the MIC (Klebsiella pneumoniae)?
**A.** > 64 µg/mL

**Q.** And the Activity (Staphylococcus aureus [14])?
**A.** Active

**Q.** What about the Activity (Staphylococcus aureus [1]; time 3 day) of the same molecule?
**A.** 1.5 log10CFU/g

**Q.** What about the Activity (Staphylococcus aureus [15]) of the same molecule?
**A.** Active

**Q.** And the Activity (Staphylococcus aureus [16])?
**A.** Active

**Q.** What about the MIC (Staphylococcus aureus [17]) of the same molecule?
**A.** 0.125 µg/mL

**Q.** What about the Activity (Staphylococcus aureus [18]) of the same molecule?
**A.** Dose-Dependent Effect

**Q.** And the “fractional inhibitory concentration index (FICI)” value (Staphylococcus aureus [19])?
**A.** 0.75

**Q.** What about the Activity (Cell membrane [20]) of the same molecule?
**A.** Active

**Q.** What about the MIC (Staphylococcus aureus [21]) of the same molecule?
**A.** 1 µg/mL (≈ 2.85 µM)

**Q.** And the Activity (Staphylococcus aureus [22])?
**A.** Active

**Q.** And the MIC (Staphylococcus aureus [23])?
**A.** 0.25 µg/mL

**Q.** What about the Activity (Cell membrane [24]) of the same molecule?
**A.** Active

**Q.** And the viability at 24 h [25]?
**A.** 75%

**Q.** And the Activity (Cell membrane [26])?
**A.** Active

**Q.** And the “fractional inhibitory concentration index (FICI)” value (Staphylococcus aureus [27])?
**A.** 0.375

**Q.** What about the “fractional inhibitory concentration index (FICI)” value (Staphylococcus aureus [28]) of the same molecule?
**A.** 0.312

**Q.** And the inhibition (Staphylococcus aureus [29])?
**A.** Active

**Q.** What about the Activity (Staphylococcus aureus [30]) of the same molecule?
**A.** 95%

**Q.** What about the Activity (Staphylococcus aureus [31]) of the same molecule?
**A.** ~50%

**Q.** What about the inhibition (Staphylococcus aureus [32]) of the same molecule?
**A.** Active

**Q.** What about the inhibition (Staphylococcus aureus [33]) of the same molecule?
**A.** inactive

**Q.** And the Activity [34]?
**A.** Non-Toxic

**Q.** What about the viability at 24 h [35] of the same molecule?
**A.** 76%

**Q.** And the Activity (Cell membrane [36])?
**A.** Active

**Q.** And the Activity (Staphylococcus aureus [37])?
**A.** 2.5 log10CFU/g

**Q.** What about the MBC (Staphylococcus aureus [38]) of the same molecule?
**A.** 1 µg/mL (≈ 2.85 µM)

**Q.** What about the Activity (Cell membrane [39]) of the same molecule?
**A.** 70%

**Q.** What about the MIC (Escherichia coli) of the same molecule?
**A.** > 64 µg/mL

**Q.** What about the MIC (Staphylococcus aureus [40]) of the same molecule?
**A.** 0.5 µg/mL (≈ 1.43 µM)
